{"source": "ChEMBL document CHEMBL4351028", "about": "“Benzoyl indoles with metabolic stability as reversal agents for ABCG2-mediated multidrug resistance” (Eur J Med Chem, 2019)", "key": {"[1]": {"target": "T1, Broad substrate specificity ATP-binding cassette transporter ABCG2 (Homo sapiens, UniProt Q9UNQ0)", "T1 sequence (Q9UNQ0 whole entry)": "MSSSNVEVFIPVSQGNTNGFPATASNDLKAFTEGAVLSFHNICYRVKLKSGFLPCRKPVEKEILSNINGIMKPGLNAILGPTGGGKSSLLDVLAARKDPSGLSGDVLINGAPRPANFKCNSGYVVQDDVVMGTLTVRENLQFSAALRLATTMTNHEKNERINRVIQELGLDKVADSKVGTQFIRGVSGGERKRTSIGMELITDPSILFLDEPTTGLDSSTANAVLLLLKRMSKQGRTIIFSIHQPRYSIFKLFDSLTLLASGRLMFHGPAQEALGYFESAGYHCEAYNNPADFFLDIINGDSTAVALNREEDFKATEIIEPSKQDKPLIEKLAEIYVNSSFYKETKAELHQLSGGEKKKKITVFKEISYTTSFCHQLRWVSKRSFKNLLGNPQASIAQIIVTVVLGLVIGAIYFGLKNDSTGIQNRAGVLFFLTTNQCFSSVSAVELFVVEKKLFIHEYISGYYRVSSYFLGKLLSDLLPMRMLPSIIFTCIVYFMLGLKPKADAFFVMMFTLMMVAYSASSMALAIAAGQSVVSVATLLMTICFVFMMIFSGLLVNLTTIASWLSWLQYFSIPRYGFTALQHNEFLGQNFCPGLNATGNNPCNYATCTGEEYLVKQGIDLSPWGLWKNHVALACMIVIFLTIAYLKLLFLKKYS", "assay": "Reversal of ABCG2-mediated multidrug resistance in human S1-M1-80 cells assessed as potentiation of mitoxantrone-induced cytotoxicity at 25 uM pretreated with compound for 2 hrs followed by mitoxantrone challenge for 44 hrs by MTT assay", "format": "cell-based"}, "[2]": {"assay": "Cytotoxicity against human S1 cells assessed as inhibition of cell viability at 5 to 25 uM incubated for 2 hrs by MTT assay relative to control", "format": "cell-based", "conditions": "read-out: INH"}, "[3]": {"target": "T1, Broad substrate specificity ATP-binding cassette transporter ABCG2", "assay": "Reversal of ABCG2 (unknown origin) expressed in HEK293 cells-mediated multidrug resistance assessed as potentiation of mitoxantrone-induced cytotoxicity at 10 to 25 uM pretreated for 2 hrs followed by mitoxantrone addition and measured after 44 hrs by MTT assay", "format": "cell-based", "conditions": "hek293, 44 h"}, "[4]": {"target": "T1, Broad substrate specificity ATP-binding cassette transporter ABCG2", "assay": "Competitive substrate activity at ABCG2 (unknown origin) expressed in High Five insect cell vesicle membrane assessed as stimulation of ATPase activity up to 40 uM by PREDEASY ATPase assay relative to control"}, "[5]": {"assay": "Cytotoxicity against human NCI-H460/MX20 cells assessed as inhibition of cell viability at 5 to 25 uM incubated for 2 hrs by MTT assay relative to control", "format": "cell-based", "conditions": "read-out: INH"}, "[6]": {"assay": "Cytotoxicity against HEK293 cells harbouring ABCG2-482-T7 mutant assessed as inhibition of cell viability at 5 to 25 uM incubated for 2 hrs by MTT assay relative to control", "format": "ADME, cell-based", "conditions": "human, read-out: INH"}, "NCI-H460 [7]": {"system": "NCI-H460", "assay": "Cytotoxicity against human NCI-H460 cells assessed as concentration that causes inhibition of cell viability by <=20% incubated for 24 hrs by MTT assay", "format": "cell-based", "conditions": "nci-h460, 24 h"}, "HEK293 [8]": {"system": "HEK293", "assay": "Reversal of ABCG2 482-G2 mutant (unknown oirigin) expressed in HEK293 cells-mediated multidrug resistance assessed as potentiation of mitoxantrone-induced cytotoxicity at 10 to 25 uM pretreated for 2 hrs followed by mitoxantrone addition and measured after 44 hrs by MTT assay", "format": "cell-based", "conditions": "Homo sapiens"}, "HEK293 [9]": {"system": "HEK293", "assay": "Reversal of ABCG2 482-T7 mutant (unknown origin) expressed in HEK293 cells-mediated multidrug resistance assessed as potentiation of mitoxantrone-induced cytotoxicity at 10 to 25 uM pretreated for 2 hrs followed by mitoxantrone challenge and measured after 44 hrs by MTT assay", "format": "cell-based", "conditions": "Homo sapiens"}, "[10]": {"assay": "Cytotoxicity against HEK293 cells harbouring ABCG2-482-G2 mutant assessed as inhibition of cell viability at 5 to 25 uM incubated for 2 hrs by MTT assay relative to control", "format": "ADME, cell-based", "conditions": "human, read-out: INH"}, "[11]": {"target": "T1, Broad substrate specificity ATP-binding cassette transporter ABCG2", "assay": "Inhibition of ABCG2-mediated mitoxantrone efflux in human NCI-H460/MX20 cells assessed as increase in accumulation of [3H]MX at 25 uM incubated for 2 hrs followed by [3H]MX addition further incubated for 2 hrs by liquid scintillation counter relative to control", "format": "cell-based"}, "[12]": {"assay": "Cytotoxicity against HEK293 cells expressing wild type ABCG2-482-R2 assessed as inhibition of cell viability at 5 to 25 uM incubated for 2 hrs by MTT assay relative to control", "format": "ADME, cell-based", "conditions": "human, read-out: INH"}, "[13]": {"target": "T1, Broad substrate specificity ATP-binding cassette transporter ABCG2", "assay": "Competitive substrate activity at ABCG2 (unknown origin) expressed in High Five insect cell vesicle membrane assessed as stimulation of ATPase activity by PREDEASY ATPase assay"}, "ABCG2": {"target": "T2, ABCG2 (Homo sapiens, UniProt Q9UNQ0)", "T2 sequence (Q9UNQ0 whole entry)": "T1 sequence (Q9UNQ0 whole entry)", "assay": "Competitive substrate activity at ABCG2 (unknown origin) expressed in High Five insect cell vesicle membrane assessed as stimulation of ATPase activity at 0.21 uM by PREDEASY ATPase assay relative to control", "conditions": "High Five insect cell vesicle membranes expressing ABCG2"}, "Homo sapiens [14]": {"species": "Homo sapiens", "assay": "Effect on ABCG2 internalization in human NCI-H460/MX20 cells at 25 uM incubated for 72 hrs by immunofluorescence analysis", "format": "functional, cell-based"}, "[15]": {"target": "T1, Broad substrate specificity ATP-binding cassette transporter ABCG2", "assay": "(§1) Reversal of ABCG2-mediated multidrug resistance in human NCI-H460/MX20 cells assessed as potentiation of mitoxantrone-induced cytotoxicity by measuring inhibition of cell proliferation pretreated for 2 hrs followed by mitoxantrone addition and measured after 44 hrs by MTT assay", "format": "cell-based"}, "Homo sapiens [16]": {"species": "Homo sapiens", "assay": "Effect on ABCG2 expression in human NCI-H460/MX20 cells at 25 uM incubated up to 72 hrs by Western blot analysis", "format": "functional, cell-based"}, "[17]": {"assay": "Cytotoxicity against HEK293 cells transfected with pcDNA3.1 assessed as inhibition of cell viability at 5 to 25 uM incubated for 2 by MTT assay relative to control", "format": "cell-based", "conditions": "human, read-out: INH"}, "[18]": {"assay": "Cytotoxicity against human NCI-H460/MX20 cells assessed as concentration that causes inhibition of cell viability by <=20% incubated for 24 hrs by MTT assay", "format": "cell-based"}, "[19]": {"target": "T1, Broad substrate specificity ATP-binding cassette transporter ABCG2", "assay": "as §1, with “proliferation at 25 uM” for “proliferation”, “assay (reference value: 24 +/- 3%)” for “assay”", "format": "cell-based"}, "[20]": {"target": "T1, Broad substrate specificity ATP-binding cassette transporter ABCG2", "assay": "Inhibition of ABCG2-mediated mitoxantrone efflux in human NCI-H460/MX20 cells assessed as increase in accumulation of [3H]MX at 10 uM incubated for 2 hrs followed by [3H]MX addition and measured after 2 hrs by liquid scintillation counter", "format": "cell-based"}, "[21]": {"target": "T1, Broad substrate specificity ATP-binding cassette transporter ABCG2", "assay": "Reversal of ABCG2-mediated multidrug resistance in human S1-M1-80 cells assessed as potentiation of doxorubicin-induced cytotoxicity at 25 uM pretreated with compound for 2 hrs followed by doxorubicin challenge for 44 hrs by MTT assay", "format": "cell-based"}, "[22]": {"target": "T1, Broad substrate specificity ATP-binding cassette transporter ABCG2", "assay": "Reversal of ABCG2-mediated multidrug resistance in human NCI-H460/MX20 cells assessed as potentiation of mitoxantrone-induced cytotoxicity at 10 to 25 uM pretreated with compound for 2 hrs followed by mitoxantrone challenge for 44 hrs by MTT assay", "format": "cell-based"}, "[23]": {"assay": "Metabolic stability in human liver microsomes assessed as compound remaining at 100 uM incubated for 1 hr by HPLC analysis", "format": "ADME, Microsome", "conditions": "read-out: Stability"}, "NCI-H460 [24]": {"system": "NCI-H460", "assay": "Cytotoxicity against human NCI-H460 cells assessed as inhibition of cell viability incubated for 2 hrs by MTT assay", "format": "cell-based", "conditions": "NCI-H460, 2 h, read-out: IC50"}, "[25]": {"assay": "Cytotoxicity against human NCI-H460 cells assessed as inhibition of cell viability at 5 to 25 uM incubated for 2 hrs by MTT assay relative to control", "format": "cell-based", "conditions": "read-out: INH"}, "[26]": {"assay": "Cytotoxicity against human S1-M1-80 cells assessed as inhibition of cell viability at 5 to 25 uM incubated for 2 hrs by MTT assay relative to control", "format": "cell-based", "conditions": "read-out: INH"}, "[27]": {"assay": "Cytotoxicity against human NCI-H460/MX20 cells assessed as inhibition of cell viability incubated for 2 hrs by MTT assay", "format": "cell-based", "conditions": "NCI-H460/MX20, 2 h"}, "[28]": {"target": "T1, Broad substrate specificity ATP-binding cassette transporter ABCG2", "assay": "Reversal of ABCG2-mediated multidrug resistance in human NCI-H460/MX20 cells assessed as potentiation of cisplatin-induced cytotoxicity at 25 uM pretreated for 2 hrs followed by cisplatin addition and measured after 44 hrs by MTT assay", "format": "cell-based"}}, "note": "Activity calls are given as the source filed them. The rule behind the calls is not given here.", "data": [{"smiles": "COc1ccc(C(=O)c2ccc3[nH]cc(C(=O)c4ccc(OC)cc4)c3c2OC)cc1", "values": [{"measurement": "Activity", "setting": "[1]", "result": "Active"}, {"measurement": "cytotoxicity at 2 h, up to 25 µM", "setting": "[2]", "result": "< 20", "unit": "%"}, {"measurement": "Activity", "setting": "[3]", "result": "Active"}, {"measurement": "fold change (FC)", "setting": "[4]", "result": 3.01}, {"measurement": "cytotoxicity at 2 h, up to 25 µM", "setting": "[5]", "result": "< 20", "unit": "%"}, {"measurement": "cytotoxicity at 2 h, up to 25 µM", "setting": "[6]", "result": "< 20", "unit": "%"}, {"measurement": "Activity", "setting": "NCI-H460 [7]", "result": 25, "unit": "µM"}, {"measurement": "Activity", "setting": "HEK293 [8]", "result": "Active"}, {"measurement": "Activity", "setting": "HEK293 [9]", "result": "Active"}, {"measurement": "cytotoxicity at 2 h, up to 25 µM", "setting": "[10]", "result": "< 20", "unit": "%"}, {"measurement": "fold change (FC)", "setting": "[11]", "result": 3}, {"measurement": "cytotoxicity at 2 h, up to 25 µM", "setting": "[12]", "result": "< 20", "unit": "%"}, {"measurement": "Activity", "setting": "[13]", "result": "Dose-dependent effect"}, {"measurement": "Emax at 0.21 µM", "setting": "ABCG2", "result": 50, "unit": "%"}, {"measurement": "Activity", "setting": "Homo sapiens [14]", "result": "inactive"}, {"measurement": "inhibition (INH)", "setting": "[15]", "result": "Dose-dependent effect"}, {"measurement": "Activity", "setting": "Homo sapiens [16]", "result": "inactive"}, {"measurement": "cytotoxicity at up to 25 µM", "setting": "[17]", "result": "< 20", "unit": "%"}, {"measurement": "Activity", "setting": "[18]", "result": 25, "unit": "µM"}, {"measurement": "inhibition at 25 µM", "setting": "[19]", "result": "> 87", "unit": "%"}, {"measurement": "Activity", "setting": "[20]", "result": "Active"}, {"measurement": "Activity", "setting": "[21]", "result": "Active"}, {"measurement": "Activity", "setting": "[22]", "result": "Active"}, {"measurement": "remaining at 1 h, 100 µM", "setting": "[23]", "result": 56, "unit": "%"}, {"measurement": "IC50", "setting": "NCI-H460 [24]", "result": "> 100", "unit": "µM"}, {"measurement": "cytotoxicity at 2 h, up to 25 µM", "setting": "[25]", "result": "< 20", "unit": "%"}, {"measurement": "cytotoxicity at 2 h, up to 25 µM", "setting": "[26]", "result": "< 20", "unit": "%"}, {"measurement": "IC50", "setting": "[27]", "result": "> 100", "unit": "µM"}, {"measurement": "Activity", "setting": "[28]", "result": "Not Active"}]}]}
